Key:
firefly luciferase [1] = biological target: T1, firefly luciferase (Photinus pyralis, UniProt P08659); assay: Firefly luciferase assay of ATP standard solution containing ADBAC, with and without chelating resin pre-treatment; type: biochemical; conditions: phosphate buffer ATP solution containing 1000 mg/L ADBAC
Method: The light produced in this reaction was measured in a luminometer (Kikkoman C-100 Lumitester). Several dilutions of this ATP solution were also prepared in phosphate buffer and tested. In addition, a 3 mL portion of this solution was mixed with 1 mL of a chelating resin (IRC748, Rohm and Haas Company) and similarly diluted in phosphate buffer, then assayed for ATP.

firefly luciferase [2] = biological target: T1, firefly luciferase; assay: Firefly luciferase assay for ATP in ADBAC extract of wastewater effluent, with and without chelating resin; type: biochemical
Method: The ATP released by this process was measured in a Kikkoman luminometer by mixing 100 microliters of the mixture and combining it with 100 microliters of a luciferase assay mixture. Several dilutions of this ATP extract were also prepared in phosphate buffer and tested. In addition, a 3 mL portion of the ATP extract was mixed with 1 mL of a chelating resin (IRC748, Rohm and Haas Company) and similarly diluted in phosphate buffer, then assayed for ATP.
Further dilutions were made in a phosphate buffer. The chelating resin was IRC-748. The resin treatment consisted of mixing 1 mL of resin with 3 mL of extract, then allowing the resin beads to settle before ATP analysis.

luciferase [3] = biological target: T2, luciferase (Photinus pyralis, UniProt P08659); assay: Luciferase assay for ATP in ADBAC extract of wastewater effluent (different date), 2 mL resin or two 1 mL portions; type: biochemical, firefly; conditions: no extract pre-treatment
T2 sequence (P08659 whole entry): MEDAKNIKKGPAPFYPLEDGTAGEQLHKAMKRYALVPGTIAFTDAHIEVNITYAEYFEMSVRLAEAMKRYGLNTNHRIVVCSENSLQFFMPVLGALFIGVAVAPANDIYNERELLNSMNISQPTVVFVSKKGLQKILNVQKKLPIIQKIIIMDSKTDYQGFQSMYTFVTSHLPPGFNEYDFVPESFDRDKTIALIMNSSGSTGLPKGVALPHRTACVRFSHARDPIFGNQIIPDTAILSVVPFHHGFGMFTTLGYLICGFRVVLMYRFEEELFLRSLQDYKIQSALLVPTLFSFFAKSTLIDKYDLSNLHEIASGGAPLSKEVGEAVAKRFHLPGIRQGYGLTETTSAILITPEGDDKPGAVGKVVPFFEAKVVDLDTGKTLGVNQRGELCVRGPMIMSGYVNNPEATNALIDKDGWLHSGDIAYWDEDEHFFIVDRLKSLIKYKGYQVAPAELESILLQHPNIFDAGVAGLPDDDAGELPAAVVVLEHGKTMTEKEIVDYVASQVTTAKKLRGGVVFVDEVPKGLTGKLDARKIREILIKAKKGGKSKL
Method: Further dilutions were made in a phosphate buffer. The chelating resin was IRC-748. The resin treatment consisted of mixing 2 mL of resin with 3 mL of extract, then allowing the resin beads to settle before ATP analysis. In a variation of this analysis, 3 mL of sample were treated with 1 mL of resin and the supernatant of this treatment was treated to a second 1 mL portion of resin prior to ATP analysis.

luciferase [4] = biological target: T2, luciferase; assay: Luciferase activity in ATP standard spiked with ADBAC after treatment with various resins; type: biochemical, firefly; conditions: 10 ng/mL ATP
Method: The experiment was conducted in the same format as described for the first experiment by testing an ATP standard solution spiked with ADBAC. The dilution required to remove inhibition following treatment with an ion-exchange resin was the same as the test condition in which no resin treatment was applied. In contrast, a ¼ fold dilution removed almost all of the inhibition in the solution that had been pre-treated with the chelating resin. Again, the luciferase activity in an undiluted solution treated with the chelating resin provided a response many times greater than untreated solution or solution treated with ion exchange resins.
It should be noted that Table 4 is constructed from results of 2 different experiments. In order to facilitate comparison, the results are expressed as enzyme activity instead of instrument reading. Luciferase activity was calculated by dividing the RLU of each test condition by the RLU of an uninhibited reaction and expressing the results as a percentage.

firefly luciferase [5] = biological target: T1, firefly luciferase; assay: Combined treatment with soluble (β-cyclodextrin) and insoluble (IRC-748) neutralizers of ADBAC inhibition of firefly luciferase; type: biochemical; conditions: β-cyclodextrin 3,750 mg/L, resin 1 part per 3 parts
Method: Four dilution series were prepared from this stock solution. One series was diluted only in a phosphate buffer. Another identical series was prepared in the phosphate buffer but was pre-treated with IRC-748 chelating resin (3 parts solution treated with one part resin) prior to assaying for ATP. […] The fourth series was prepared in the same way as the third series, except that each member of the series was pre-treated with IRC-748 chelating resin (3 parts solution treated with one part resin) prior to assaying for ATP. All solutions were assayed for ATP by mixing 100 microliters of solution with 100 microliters of luciferase reagent and measuring the light produced in a Kikkoman luminometer.
The experiment described in Example 5 compares the ability of a soluble agent (β-cyclodextrin) and an insoluble agent (chelating resin, IRC-748) and their combination to neutralize the inhibition of the bioluminescent reaction catalyzed by firefly luciferase.
A concentrate of cyclodextrin was added to the ATP solutions in some of the tests to maintain concentration of 3,750 mg/L through the dilution series.

T1 sequence (P08659 whole entry): as above

“alkyl dimethybenzyl ammonium chloride [ADBAC]” was tested, and the “dilution factor needed to overcome luciferase inhibition” value (firefly luciferase [1]) was 8, the RLU (firefly luciferase [2]; dilution of ADBAC (1000 mg/L) in ATP extract 1/16, resin 1 mL per 3 mL extract) was 4,628 RLU and the RLU (firefly luciferase [2]; dilution of ADBAC (1000 mg/L) in ATP extract 1/32, resin 1 mL per 3 mL extract) was 2,401 RLU. The RLU (firefly luciferase [2]; dilution of ADBAC (1000 mg/L) in ATP extract ¼, resin 1 mL per 3 mL extract) was 4,658 RLU, the RLU (firefly luciferase [2]; dilution of ADBAC (1000 mg/L) in ATP extract ½, resin 1 mL per 3 mL extract) was 1,489 RLU and the RLU (luciferase [3]; dilution of ADBAC in ATP extract 1/16) was 3100 RLU. The RLU (luciferase [3]; dilution of ADBAC in ATP extract 1/32) was 1551 RLU, the RLU (luciferase [3]; dilution of ADBAC in ATP extract ¼) was 7,310 RLU and the RLU (luciferase [3]; dilution of ADBAC in ATP extract ½) was 209 RLU. The RLU (luciferase [3]; dilution of ADBAC in ATP extract ⅛) was 6064 RLU, the “Luciferase Activity (% of activity in the absence of ADBAC)” value (luciferase [4]; dilution 1/16, 1000 mg/L ADBAC stock in phosphate buffer) was 100% and the “Luciferase Activity (% of activity in the absence of ADBAC)” value (luciferase [4]; dilution None, 1000 mg/L ADBAC in phosphate buffer) was 0.01%. The “Luciferase Activity (% of activity in the absence of ADBAC)” value (luciferase [4]; dilution ¼, 1000 mg/L ADBAC stock in phosphate buffer) was 33%, the “Luciferase Activity (% of activity in the absence of ADBAC)” value (luciferase [4]; dilution ½, 1000 mg/L ADBAC stock in phosphate buffer) was 6.7% and the “Luciferase Activity (% of activity in the absence of ADBAC)” value (luciferase [4]; dilution ⅛, 1000 mg/L ADBAC stock in phosphate buffer) was 100%.

Work on `OC[C@H]1O[C@@H]2O[C@H]3[C@H](O)[C@@H](O)[C@@H](O[C@H]4[C@H](O)[C@@H](O)[C@@H](O[C@H]5[C@H](O)[C@@H](O)[C@@H](O[C@H]6[C@H](O)[C@@H](O)[C@@H](O[C@H]7[C@H](O)[C@@H](O)[C@@H](O[C@H]8[C@H](O)[C@@H](O)[C@@H](O[C@H]1[C@H](O)[C@H]2O)O[C@@H]8CO)O[C@@H]7CO)O[C@@H]6CO)O[C@@H]5CO)O[C@@H]4CO)O[C@@H]3CO` [β-cyclodextrin] yielded an RLU (firefly luciferase [5]; dilution 1/16 of 7200 mg/L ADBAC, 1 ng ATP per mL stock) of 606 RLU, an RLU (firefly luciferase [5]; dilution ¼ of 7200 mg/L ADBAC, 1 ng ATP per mL stock) of 96 RLU and an RLU (firefly luciferase [5]; dilution ½ of 7200 mg/L ADBAC, 1 ng ATP per mL stock (3600 mg/L ADBAC, 0.5 ng/mL ATP)) of 3 RLU. For the same compound, the RLU (firefly luciferase [5]; dilution ⅛ of 7200 mg/L ADBAC, 1 ng ATP per mL stock) was 1227 RLU.

Source: US7829280B2, “Process for reducing interferences in luciferase enzyme assays” (LuminUltra Technologies Ltd., priority 2007, dated 2010)
